Residue numbers refer to the chain shown, from its start.
Columns and labels:
U251-MG cells = test: Colony formation assay in U251-MG cells overexpressing GLUT3 Q159A, W386A or WT; format: cell-based, human; conditions: TMZ 200 μM or CAPE 400 μM every two days
Description: GBM cells were harvested using 0.25% trypsin when cell viability was confirmed to be optimal, and the cell concentration was determined using a hemocytometer. A total of 1 × 10³ cells were seeded into each well of a 6-well plate and incubated at 37 °C overnight. The following day, cell morphology was examined under an inverted microscope. The culture medium was replaced every 2 days, and cell growth was monitored regularly. When cell colonies exceeded 50 cells, they were recorded. The cells were then washed with pre-warmed PBS. Subsequently, the cells were fixed with 4% paraformaldehyde (1 mL per well) for 20 min at room temperature. After fixation, the cells were washed three times with PBS. A total of 1 mL of 0.1% crystal violet staining solution was added to each well for 20 min. The wells were then washed three times with distilled water, covered with a plate lid, and left to dry overnight. The number of colonies in each well was quantified using ImageJ software.
The medium was replaced every 2 days. When colonies visible to the naked eye had formed, the cells were fixed with 4% paraformaldehyde and stained with 0.1% crystal violet as described above. The colonies were then quantified using ImageJ software for statistical analysis.

GLUT3 mutants = test: TMZ/CAPE uptake by U251-MG cells stably expressing GLUT3 mutants vs WT GLUT3 (LC-MS/MS); format: in vitro ADME, human; conditions: U251-MG cells expressing GLUT3 mutants with reduced affinity vs WT GLUT3
Description: (§1) A total of 6 × 10^6 cells were seeded into each well of a 6 cm Petri dish and cultured at 37 °C in a humidified atmosphere containing 5% CO2 for 8 h. The cells were then washed twice with PBS (137 mM NaCl, 2.7 mM KCl, 10 mM Na2HPO4, 1.8 mM KH2PO4, pH 7.4) and incubated in transport buffer (140 mM NaCl, 5 mM KCl, 2 mM MgCl2, 2 mM CaCl2, 30 mM Tris-HCl, pH 7.4) for 15 min at 37 °C. […] Cell supernatants were collected and stored at 4 °C for subsequent extraction. The harvested cells were washed three times with PBS and extracted with 500 µL of 80% methanol for 30 min at −80 °C. The cell lysate was then centrifuged at 14,000 × g for 5 min at 4 °C, followed by 2 min of sonication. The supernatant was transferred to a new centrifuge tube. For LC-MS/MS analysis, the cell supernatants and cell lysates were diluted at a specific ratio. A total of 100 µL of each sample was mixed with 100 µL of acetonitrile (or standard reagent) and 300 µL of internal standard solution (^2H3-TMZ 100 ng/mL and ^2H11-CAPE 20 ng/mL dissolved in acetonitrile). […] Quality control (QC) samples were prepared and analyzed alongside the experimental samples to monitor the stability and repeatability of the instrument. QC samples were inserted regularly and analyzed every 6–12 samples. Each experiment was repeated 5–6 times. […]

GLUT3 = biological target: T1, GLUT3 (Homo sapiens, UniProt P11169); test: Cellular uptake of TMZ and CAPE by LC-MS/MS, GLUT3 KD U343-MG cells; format: in vitro ADME; conditions: for extracellular drug level higher than controls: GLUT3-KD U343-MG cells, remaining extracellular drug after uptake; for reduction of drug uptake by GLUT3 KD: U343-MG cells, 200 μM drug, 37 °C, 15 min, intracellular level vs control
T1 construct: expressed in transfected cells
T1 sequence (P11169 1-496): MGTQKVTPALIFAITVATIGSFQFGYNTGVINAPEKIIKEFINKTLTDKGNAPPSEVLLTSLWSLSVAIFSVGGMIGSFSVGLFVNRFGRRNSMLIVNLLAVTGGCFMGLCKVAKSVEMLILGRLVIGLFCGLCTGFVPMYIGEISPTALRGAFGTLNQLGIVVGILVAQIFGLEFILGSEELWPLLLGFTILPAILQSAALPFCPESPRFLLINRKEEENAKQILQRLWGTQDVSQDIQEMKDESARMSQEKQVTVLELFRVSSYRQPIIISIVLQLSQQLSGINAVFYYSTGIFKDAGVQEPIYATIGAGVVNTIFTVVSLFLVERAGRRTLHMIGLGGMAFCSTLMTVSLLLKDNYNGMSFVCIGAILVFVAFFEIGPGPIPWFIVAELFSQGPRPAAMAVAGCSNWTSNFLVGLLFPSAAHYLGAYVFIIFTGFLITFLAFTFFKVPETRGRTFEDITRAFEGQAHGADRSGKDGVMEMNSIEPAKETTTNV
Description: A total of 6 × 10^6 cells were seeded into each well of a 6 cm Petri dish and cultured at 37 °C in a humidified atmosphere containing 5% CO2 for 8 h. The cells were then washed twice with PBS (137 mM NaCl, 2.7 mM KCl, 10 mM Na2HPO4, 1.8 mM KH2PO4, pH 7.4) and incubated in transport buffer (140 mM NaCl, 5 mM KCl, 2 mM MgCl2, 2 mM CaCl2, 30 mM Tris-HCl, pH 7.4) for 15 min at 37 °C. […] Cell supernatants were collected and stored at 4 °C for subsequent extraction. The harvested cells were washed three times with PBS and extracted with 500 µL of 80% methanol for 30 min at −80 °C. The cell lysate was then centrifuged at 14,000 × g for 5 min at 4 °C, followed by 2 min of sonication. The supernatant was transferred to a new centrifuge tube. For LC-MS/MS analysis, the cell supernatants and cell lysates were diluted at a specific ratio. A total of 100 µL of each sample was mixed with 100 µL of acetonitrile (or standard reagent) and 300 µL of internal standard solution (^2H3-TMZ 100 ng/mL and ^2H11-CAPE 20 ng/mL dissolved in acetonitrile). […] Quality control (QC) samples were prepared and analyzed alongside the experimental samples to monitor the stability and repeatability of the instrument. QC samples were inserted regularly and analyzed every 6–12 samples. Each experiment was repeated 5–6 times.
LC-MS/MS analyses were performed using a high-performance liquid chromatography (HPLC) system (Shimadzu, LC-20A) coupled to a […] (ABSciex, API4000 QTRAP). The samples were separated on a 2.1 × 100 mm ACQUITY Premier BEH C18 1.7 µm VanGuard™ FIT column (Waters, Ireland). The mobile phases consisted of: Mobile phase A (0.1% formic acid and 2.5 mM ammonium acetate in water) and Mobile phase B (0.1% formic acid and 2.5 mM ammonium acetate in acetonitrile). Gradient elution was employed, with the flow rates and gradient conditions detailed in Table S2.
The mass spectrometry conditions were as follows: Ion source: electrospray ionization (ESI); Detection mode: positive ion mode; Scanning method: multiple reaction monitoring (MRM); Spray voltage (IS): 5500 V; Ion source temperature (TEM): 555 °C; Gas curtain pressure (CUR): 25 psi; Collision activation dissociation (CAD): MEDIUM; Nebulizer gas pressure (GS1): 55 psi; Auxiliary gas pressure (GS2): 55 psi.

GLUT3 N413A = biological target: T2, GLUT3 N413A (Homo sapiens, UniProt P11169, N413A); test: TMZ uptake by U251-MG cells stably expressing GLUT3 N413A vs WT GLUT3 (LC-MS/MS); format: in vitro ADME
T2 construct: expressed in transfected cells; host or cells: U87 and U343 per methods
T2 sequence (P11169 1-496 N413A): T1 sequence (P11169 1-496) with N413A
Description: as §1

[1] = GLUT3 Q159A vs GLUT3 WT overexpression
[2] = GLUT3 W386A vs GLUT3 WT overexpression

`CCCCCOC(=O)Nc1nc(=O)n([C@@H]2O[C@H](C)[C@@H](O)[C@H]2O)cc1F` [CAPE, capecitabine] was tested, and the “fold increase in colony numbers” value (U251-MG cells; [1]) was 1.7 fold, the “fold increase in colony numbers” value (U251-MG cells; [2]) was 4.4 fold and the “reduction in drug uptake” value (GLUT3 mutants) was 75–95%. The “extracellular drug level higher than controls” value (GLUT3) was 12% and the “reduction of drug uptake by GLUT3 KD” value (GLUT3) was 65.5%.

In the case of `Cn1nnc2c(C(N)=O)ncn2c1=O` [TMZ], the “fold increase in colony numbers” value (U251-MG cells; [1]) is reported as 0.97 fold, the “fold increase in colony numbers” value (U251-MG cells; [2]) is reported as 7.3 fold and the “reduction in drug uptake” value (GLUT3 mutants) is reported as 60–70%. The “reduction in drug uptake” value (GLUT3 N413A) was 40–50%, the “extracellular drug level higher than controls” value (GLUT3) was 3% and the “reduction of drug uptake by GLUT3 KD” value (GLUT3) was 54.3%.

From article PMC12354831 (Cell Death Discovery, 2025)
